The values below come from publication PMC12426922, “Fingerprinting the Intestinal Transport of Low-Molecular-Mass Advanced Glycation End-Products (AGEs) Using a Caco‑2 Transwell Model” (Journal of Agricultural and Food Chemistry, 2025).

The nature of data set [1]: Transport of AGE mixture across Caco-2 cell layer (transwell, apical to basolateral). It counts as in vitro ADME, Human. As to conditions: human; for recovery at 2 h, 100 μmol/L: read-out: percentage of the amount added at the apical side at t = 0: recovery; for Papp at 120 min, 100 μmol/L: data from 120 min. As for the experimental part: (§1) Human colon carcinoma cells (Caco-2 cells) were obtained from the American Type Culture Collection (ATCC, Rockville, MD, USA). Caco-2 cells were cultured in complete culture medium, composed of DMEM GlutaMAX with 10% FBS (v/v), 1% P/S (v/v), and 1% NEAA (v/v) at 37 °C in a 5% (v/v) CO2 incubator. In this study, Caco-2 cells within passages 10–15 were utilized.
(§2) Caco-2 cells were cultured until reaching 50%–60% confluence (undifferentiated Caco-2 cells), followed by trypsinization. Then, cells were seeded at 3 × 10^4 cells per insert in 100 μL of complete culture medium into the transwell inserts of a 24-well transwell plate, and 600 μL of complete culture medium was added to the basolateral compartments. In both the apical and basolateral compartments, the medium was renewed every other day. After 2 weeks, the transepithelial electrical resistance (TEER) value was measured using a Millicell ERS-2 Electrical Resistance System (Burlington, MA, USA) every other day. Only wells with a TEER value of >400 Ω/cm^2 were used for transport experiments. Moreover, the TEER value was measured before and after the transport experiment to ascertain that the Caco-2 cell layer remained intact during the whole transport experiment.
(§3) Transport experiments were performed after 20 days of differentiation of the Caco-2 cells. The culture medium was replaced with HBSS (containing 1% (v/v) HEPES) 30 min prior to testing in both the apical and basolateral compartments. After the 30 min preincubation, 100 μL of HBSS containing a mixture of the 10 different AGEs including CML, CEL, GALA, argpyrimidine, MG-H1, GOLD, GOLA, MOLD, pentosidine, and pyrraline, each at 100 μmol/L, was added to the apical compartment after removing the preincubation medium, while the basolateral medium was replaced by 600 μL of HBSS. […] At 120 min, a 10 μL sample from the apical side was taken for calculating apical side retention (nontransported percentage).
(§4) The apparent permeability coefficient (Papp) value was calculated according to the methodology described by Yee.
(§5) AGEs were quantified by LC-MS using a Shimadzu Nexera XR LC-40D XR UPLC system (Kyoto, Japan) equipped with a UPLC Amide column (100 mm × 2.1 mm, 1.7 μm) without derivatization coupled with a Shimadzu LCMS-8045 triple quadrupole mass spectrometer (Kyoto, Japan). The analytical column was maintained at 40 °C throughout the quantification process. A multistep binary gradient system of water containing 0.1% (v/v) formic acid (solvent A) and acetonitrile containing 0.1% (v/v) formic acid (solvent B) was used. In the whole gradient program, the total proportion of solvents A and B is always equal to 100%. The gradient program was designed as follows: 75% solvent B to 12.5% solvent B from 0 to 10 min, followed by 12.5% solvent B from 10 to 11 min. […] The initial flow rate was set to 0.30 mL/min. Subsequently, it was reduced to 0.25 mL/min at 0.3 min, which was kept until 10 min. Afterward, there was a gradual decrease, reaching 0.15 mL/min at 11 min, and this rate was maintained until 12 min. […] Between 1 and 11 min of gradient running, the line was set to MS, and for the other time periods, the line was set to waste. The retention time and mass spectrometry parameters of individual AGEs are listed in Table S1 and the chromatograms of the samples are shown in Figure S1.

In another data set the test system is PepT1. The description is as above. The format is in vitro ADME, Human. The note with it: human, mixture, each AGE 100 μmol/L; for recovery at 2 h, 100 μmol/L: Caco-2, with Gly-Sar 10 mmol/L (apical compartment), Gly-Sar 10 mmol/L, read-out: percentage of the amount added at the apical side at t = 0: recovery; for Papp at 120 min, 100 μmol/L: Caco-2, with Gly-Sar 10 mmol/L (apical), 10 mmol/L Gly-Sar apical (PepT1 inhibition), data from 120 min. As to the method:
as §1, §2, §3, §4, §5

The test system of a further data set is Caco-2 cell layer. The data set is described as above. It counts as in vitro ADME, Human. As to conditions: mixture, each AGE 100 μmol/L, 2 h; for percentage of the amount added at the apical side at t = 0: apical side (nontransported) / percentage of the amount added at the apical side at t = 0: basolateral side (transported): standard treatment. As for the experimental part: as §1, §2, §3, §4, §5

The test system of data set [2] is differentiated Caco-2 cells. The data set can be described thus: WST-1 cytotoxicity assay, viability of differentiated Caco-2 cells after 2 h exposure. As to conditions: for the mixture: concentration of each AGE. It counts as cell-based, Human. As to the method:
as §1
The WST-1 assay was used to quantify the viability of differentiated Caco-2 cells upon exposure to the individual AGEs and their equimolar mixture. To this end, Caco-2 cells were seeded in 96-well plates at 3 × 10^4 cells/well (100 μL) and incubated at 37 °C under 5% (v/v) CO2 for 20 days. The complete culture medium was refreshed on each alternate day. After full differentiation, the culture medium was removed, and the cells were washed with HBSS (containing 1% (v/v) HEPES) twice on the testing day. The same volume (100 μL) of HBSS containing a series of concentrations of the different individual test compounds or of a mixture containing all 10 AGEs was added from a 20-times-concentrated stock solution in HBSS. The test concentrations were designed based on the estimated daily intake of total AGEs (0.55–0.66 mg/(kg·day)) and high-exposure scenarios (1.4–1.8 mg/(kg day)). […] After exposure for 2 h, the absorbance at 440 and 620 nm was measured in a plate spectrophotometer (Molecular Devices, San Jose, CA, USA, Spectra Max M2). After measurement, the cell viability was calculated as cell viability (%)=(Atested 440 nm−Atested 620 nm)/(Acontrol 440 nm−Acontrol 620 nm)×100
On the technique in general: Tetrazolium dyes change colour on reduction, which living cells bring about.

For another data set, the system named is Caco-2 cell monolayer. Kind of data set: Accumulation of AGEs in the Caco-2 cell monolayer after transport experiment. The format is in vitro ADME, Human. As to conditions: 2 h; for percentage of the amount added at the apical side at t = 0: accumulation / percentage of the amount added at the apical side at t = 0: accumulation (intracellular): mixture, each AGE 100 μmol/L. As to the method:
After the transport experiment, the cell monolayer on the inset membrane was washed three times with HBSS and three times with PBS. […] The samples were subsequently centrifuged at 16 000g for 20 min at 4 °C, and the supernatant was collected for further analysis by LC-MS.
as §5, with “The” for “AGEs were quantified by LC-MS using a Shimadzu Nexera XR LC-40D XR UPLC system (Kyoto, Japan) equipped with a UPLC Amide column (100 mm × 2.1 mm, 1.7 μm) without derivatization coupled with a Shimadzu LCMS-8045 triple quadrupole mass spectrometer (Kyoto, Japan). The”, “100%.” for “100%. The gradient program was designed as follows: 75% solvent B to 12.5% solvent B from 0 to 10 min, followed by 12.5% solvent B from 10 to 11 min.”

Where [3] appears, read: Caco-2, 4 °C, mixture, each AGE 100 μmol/L.
Where [4] appears, read: Caco-2, cytochalasin D pretreatment, mixture, each AGE 100 μmol/L.
[5] abbreviates: Caco-2, standard treatment (37 °C), equimolar mixture of 10 AGEs, each 100 μmol/L apical.
Setting [6] is: Caco-2, standard treatment, mixture, each AGE 100 μmol/L.
[7] abbreviates: Caco-2, cytochalasin D 1 μg/mL, 30 min apical preincubation, mixture, each AGE 100 μmol/L.

As usually defined, the Papp is the rate of passage across a membrane or cell layer, normalised by area and donor concentration.

The structures appear in SMILES notation. Read-outs that look alike come from different tables or passages of the source. Marks after values point to notes of the source that are not given here.

For `N[C@@H](CCCC[n+]1cccc2[nH]c(NCCC[C@H](N)C(=O)O)nc21)C(=O)O` [pentosidine], the recovery at 2 h, 100 μmol/L in data set [1] (setting [3]) amounted to 83.3 ± 6.6%; in data set [1] (setting [4]), 92.6 ± 14.5%; in data set [1] (setting [6]), 96.9 ± 12.3%; with PepT1 it was 93 ± 10.5%. The Papp at 120 min, 100 μmol/L in data set [1] (setting [3]) turned out to be 0.054 ×10⁻⁶ cm/s; in data set [1] (setting [5]) it was 0.083 ×10⁻⁶ cm/s; in data set [1] (setting [7]), 0.278 ×10⁻⁶ cm/s; with PepT1 it was 0.061 ×10⁻⁶ cm/s. Also, the entries for the “percentage of the amount added at the apical side at t = 0: apical side” value in the data set on Caco-2 cell layer (4 °C), in the data set with Caco-2 cell layer (Gly-Sar 10 mmol/L) and in the data set on Caco-2 cell layer (cytochalasin D pretreatment) were 83.2 ± 6.7 ^a %, 92.8 ± 10.4 ^a % and 95.0 ± 14.2 ^a %, respectively. Also, the “percentage of the amount added at the apical side at t = 0: basolateral side” value was 0.1 ± 0.1 ^b % in the data set on Caco-2 cell layer (4 °C), 0.1 ± 0.1 ^b % in the data set on Caco-2 cell layer (Gly-Sar 10 mmol/L) and 0.7 ± 0.4 ^a % in the data set on Caco-2 cell layer (cytochalasin D pretreatment). Further, the “percentage of the amount added at the apical side at t = 0: apical side (nontransported)” value (from here on “percentage … (nontransported)”) in the data set on Caco-2 cell layer is 89.1 ± 12.2 ^a %. The “concentration that did not significantly affect cell viability” value in data set [2] is no more than 500 µM. In addition, the “percentage of the amount added at the apical side at t = 0: accumulation” value in the data set with Caco-2 cell monolayer (4 °C), in the data set on Caco-2 cell monolayer (Gly-Sar 10 mmol/L) and with Caco-2 cell monolayer (cytochalasin D pretreatment) was 0.0 ± 0.0 ^a % in each case.

As to `CC(NCCCC[C@H](N)C(=O)O)C(=O)O` (stereo partly shown) [CEL, N-ε-(carboxyethyl)-lysine], the recovery at 2 h, 100 μmol/L was 89.1 ± 9.1% in data set [1] (setting [3]), 95.5 ± 5.1% in data set [1] (setting [4]), 96.5 ± 7.2% in data set [1] (setting [6]) and 89.5 ± 4.8% in the data set on PepT1. Moreover, the Papp at 120 min, 100 μmol/L amounted to 0.105 ×10⁻⁶ cm/s in data set [1] (setting [3]), 0.164 ×10⁻⁶ cm/s in data set [1] (setting [5]), 0.507 ×10⁻⁶ cm/s in data set [1] (setting [7]) and 0.149 ×10⁻⁶ cm/s with PepT1. Further, the “percentage of the amount added at the apical side at t = 0: apical side” value is 88.8 ± 9.1 ^a % with Caco-2 cell layer (4 °C) and 93.1 ± 4.7 ^a % in the data set on Caco-2 cell layer (cytochalasin D pretreatment). The “percentage of the amount added at the apical side at t = 0: basolateral side” value was 0.3 ± 0.1 ^a % in the data set on Caco-2 cell layer (4 °C), 0.4 ± 0.1 ^a % with Caco-2 cell layer (Gly-Sar 10 mmol/L) and 1.2 ± 0.6 ^b % with Caco-2 cell layer (cytochalasin D pretreatment). Also, in the data set with Caco-2 cell layer, the “percentage … (nontransported)” value is on record as 95.0 ± 7.00 ^a %. The “percentage of the amount added at the apical side at t = 0: basolateral side (transported)” value with Caco-2 cell layer is on record as 0.4 ± 0.2 ^a %. In addition, the “concentration that did not significantly affect cell viability” value in data set [2] was no more than 1500 µM. Also, the “percentage of the amount added at the apical side at t = 0: accumulation” value in the data set on Caco-2 cell monolayer (4 °C) was 0.0 ± 0.0 ^b %; with Caco-2 cell monolayer (Gly-Sar 10 mmol/L), 1.3 ± 0.2 ^a %; in the data set with Caco-2 cell monolayer (cytochalasin D pretreatment) it was 1.2 ± 0.2 ^a %. Moreover, in the data set with Caco-2 cell monolayer (standard treatment), the “intracellular accumulation relative to CML” value was “about half that observed of CML”. Further, the “percentage of the amount added at the apical side at t = 0: accumulation (intracellular)” value in the data set on Caco-2 cell monolayer (standard treatment) is given as 1.1 ± 0.2 ^a %.

Turning to `CC1NC(NCCC[C@H](N)C(=O)O)=NC1=O` (stereo partly shown) [MG-H1, methylglyoxal–hydroimidazolone], the recovery at 2 h, 100 μmol/L amounted to 89.7 ± 5.4% in data set [1] (setting [3]), 94.6 ± 4.2% in data set [1] (setting [4]), 94.1 ± 3.6% in data set [1] (setting [6]) and 90.8 ± 5.9% in the data set with PepT1. For the same compound, the Papp at 120 min, 100 μmol/L in data set [1] (setting [3]) is 0.107 ×10⁻⁶ cm/s; in data set [1] (setting [5]), 0.182 ×10⁻⁶ cm/s; in data set [1] (setting [7]), 0.526 ×10⁻⁶ cm/s; with PepT1, 0.168 ×10⁻⁶ cm/s. The results for the “percentage of the amount added at the apical side at t = 0: apical side” value in the data set with Caco-2 cell layer (4 °C), in the data set with Caco-2 cell layer (Gly-Sar 10 mmol/L) and in the data set with Caco-2 cell layer (cytochalasin D pretreatment) were 89.7 ± 5.5 ^a %, 90.1 ± 5.8 ^a % and 93.0 ± 4.5 ^a %, respectively. Also, the results for the “percentage of the amount added at the apical side at t = 0: basolateral side” value in the data set on Caco-2 cell layer (4 °C), in the data set on Caco-2 cell layer (Gly-Sar 10 mmol/L) and in the data set on Caco-2 cell layer (cytochalasin D pretreatment) were 0.3 ± 0.1 ^b %, 0.4 ± 0.2 ^b % and 1.2 ± 0.6 ^a %, respectively. Moreover, the “percentage … (nontransported)” value in the data set with Caco-2 cell layer was 93.4 ± 3.6 ^a %. Also, in the data set with Caco-2 cell layer, the “percentage of the amount added at the apical side at t = 0: basolateral side (transported)” value is 0.4 ± 0.2 ^b %. The “concentration that did not significantly affect cell viability” value in data set [2] was no more than 750 µM. Further, the “percentage of the amount added at the apical side at t = 0: accumulation” value is given as 0.0 ± 0.0 ^b % with Caco-2 cell monolayer (4 °C), 0.3 ± 0.1 ^b % with Caco-2 cell monolayer (Gly-Sar 10 mmol/L) and 0.3 ± 0.1 ^b % in the data set with Caco-2 cell monolayer (cytochalasin D pretreatment). For the same compound, in the data set with Caco-2 cell monolayer (standard treatment), the “percentage of the amount added at the apical side at t = 0: accumulation (intracellular)” value is on record as 0.3 ± 0.1 ^a %.
